For 22 compounds, Ki results are on record in patent US9518060B2, “Substituted pyrrolo[3,4-c]pyrazoles as PKC kinase inhibitors” (PFIZER INC., priority 2007, dated 2016).

For orientation: pKi means the negative decadic logarithm of the Ki, by convention in mol/L.

SMILES strings stand for the structures. pKi: −log10 of the molar value.

Sequence of Protein Kinase C beta 2 (PKCβII) (P05771 other isoform, or with tags, fused parts or gaps): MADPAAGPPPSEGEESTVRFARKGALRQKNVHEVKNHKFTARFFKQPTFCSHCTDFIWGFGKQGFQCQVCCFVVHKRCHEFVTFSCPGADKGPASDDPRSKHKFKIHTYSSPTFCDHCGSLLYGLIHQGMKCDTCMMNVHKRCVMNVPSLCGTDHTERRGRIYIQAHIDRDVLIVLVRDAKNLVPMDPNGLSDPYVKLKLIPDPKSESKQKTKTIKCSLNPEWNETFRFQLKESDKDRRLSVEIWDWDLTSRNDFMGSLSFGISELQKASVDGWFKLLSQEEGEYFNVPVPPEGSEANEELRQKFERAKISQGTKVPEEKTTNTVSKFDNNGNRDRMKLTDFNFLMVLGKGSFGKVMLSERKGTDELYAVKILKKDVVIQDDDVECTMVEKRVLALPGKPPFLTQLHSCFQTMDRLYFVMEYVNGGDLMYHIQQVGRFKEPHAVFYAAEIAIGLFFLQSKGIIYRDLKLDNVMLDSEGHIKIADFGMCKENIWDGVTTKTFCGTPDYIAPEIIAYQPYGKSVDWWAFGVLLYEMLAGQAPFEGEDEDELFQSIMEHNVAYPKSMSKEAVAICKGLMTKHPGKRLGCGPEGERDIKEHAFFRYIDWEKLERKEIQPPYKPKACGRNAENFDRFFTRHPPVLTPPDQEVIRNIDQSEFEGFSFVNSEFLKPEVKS

The assay has as its target Protein Kinase C beta 2 (PKCβII) (Homo sapiens (Human), UniProt P05771). As to the kind of experiment: PKCβII coupled spectrophotometric kinase assay (PK/LDH, NADH absorbance at 340 nm). It counts as biochemical. The note with it: apparent Ki, ATP competitive inhibition model (Morrison equation); 0.1 mM ATP, 5 nM PKC, 30° C.; read-out: Ki app. Here is the method:
Protein Kinase C beta 2 (PKCβII) catalyzes the production of ADP from ATP that accompanies the phosphoryl transfer to the PKC Pseudosubstrate peptide (A→S, RFARKGSLRQKNV). This transfer is coupled to the oxidation of β-NADH through the activities of Pyruvate Kinase (PK) and Lactate Dehydrogenase (LDH). β-NADH conversion to NAD+ is monitored by the decrease in absorbance at 340 nm (e=6.22 cm^−1 mM^−1) using a Molecular Devices SPECTRA max PLUS spectrophotometer.
A typical assay was carried out on a 96-well, clear microtiter plate in a Molecular Devices spectrophotometer for 20 minutes at 30° C. in 0.1 mL of assay buffer containing 50 mM HEPES, pH 7.4, 5 nM PKC, 23 units of pyruvate kinase, 33 units of lactate dehydrogenase, 0.15 mM peptide, 0.1 mM ATP, 1 mM DTT, 4 mM PEP, 8 mM MgCl2, 0.3 mM NADH, 60 mM CaCl2, 10 mg/mL PS, 50 ng/mL PMA, 7.5% DMSO and from about 10,000 nM to 0.169 nM compound inhibitor. Stock solutions of 3-sn-phosphatidyl-L-serine (PS) and phorbol-12-myristate-13-acetate (PMA) were sonicated for 30 seconds just prior to addition to assay buffer and assays were initiated by the addition of 100 μM ATP.
Steady-state kinetic parameters for the bi-bi kinase reaction were determined at saturating phospho-acceptor peptide substrate concentration (0.15 mM) by fitting initial velocity data to the Michaelis-Menten equation, v=Vmax[S]/(KM+[S]) where v is the measured initial velocity, Vmax is the maximal enzyme velocity, [S] is the ATP substrate concentration, and KM is the Michealis constant for ATP. Enzyme turnover values (kcat) were calculated according to […], where [E] is the total enzyme concentration. Enzyme inhibition constants (apparent Ki values) were determined by fitting initial velocities at variable inhibitor concentrations to a model for ATP competitive inhibition based on the Morrison equation). Morrison, J. F., Biochim. Biophys Acta 185: 269-286 (1969).
As to `CCc1ncc(F)c(Nc2n[nH]c3c2CN(C(=O)N2CC(C)(C)N(C)C[C@@H]2C)C3(C)C)n1` [Example D1, N-(2-ethyl-5-fluoropyrimidin-4-yl)-6,6-dimethyl-5-{[(2S)-2,4,5,5-tetramethylpiperazin-1-yl]carbonyl}-1,4,5,6-tetrahydropyrrolo[3,4-c]pyrazol-3-amine], the negative-log Ki (pKi) was 8.27.

For the compound `CCOc1ncc(F)c(Nc2n[nH]c3c2CN(C(=O)N2CC(C)(C)N(C)C[C@@H]2C)C3(C)C)n1` [Example K3, N-(2-ethoxy-5-fluoropyrimidin-4-yl)-6,6-dimethyl-5-{[(2S)-2,4,5,5-tetramethylpiperazin-1-yl]carbonyl}-1,4,5,6-tetrahydropyrrolo[3,4-c]pyrazol-3-amine], the pKi was 9.04.

For the compound `CCOc1ncc(F)c(Nc2n[nH]c3c2CN(C(=O)N2C[C@@H](C)N(CCC(F)(F)F)C[C@@H]2C)C3(C)C)n1` [Example K18, 5-{[(2S,5R)-2,5-dimethyl-4-(3,3,3-trifluoropropyl)piperazin-1-yl]carbonyl}-N-(2-ethoxy-5-fluoropyrimidin-4-yl)-6,6-dimethyl-1,4,5,6-tetrahydropyrrolo[3,4-c]pyrazol-3-amine], the pKi is 7.60.

For the compound `CCOc1ncc(F)c(Nc2n[nH]c3c2CN(C(=O)C2CCN(C4CCOCC4)CC2)C3(C)C)n1` [Example L6, N-(2-ethoxy-5-fluoropyrimidin-4-yl)-6,6-dimethyl-5-{[1-(tetrahydro-2H-pyran-4-yl)piperidin-4-yl]carbonyl}-1,4,5,6-tetrahydropyrrolo[3,4-c]pyrazol-3-amine], the pKi is 6.74.

As to `C[C@@H]1CN(C(=O)N2Cc3c(Nc4nc(OCC(F)(F)F)ncc4F)n[nH]c3C2(C)C)[C@@H](C)CN1C` [Example K7, N-[5-fluoro-2-(2,2,2-trifluoroethoxy)pyrimidin-4-yl]-6,6-dimethyl-5-{[(2S,5R)-2,4,5-trimethylpiperazin-1-yl]carbonyl}-1,4,5,6-tetrahydropyrrolo[3,4-c]pyrazol-3-amine], the negative-log Ki (pKi) is 9.78.

Take `CCOc1ncc(F)c(Nc2n[nH]c3c2CN(C(=O)C2(F)CCN(C)CC2)C3(C)C)n1` [Example L1, N-(2-ethoxy-5-fluoropyrimidin-4-yl)-5-[(4-fluoro-1-methylpiperidin-4-yl)carbonyl]-6,6-dimethyl-1,4,5,6-tetrahydropyrrolo[3,4-c]pyrazol-3-amine]: the pKi is 7.77.

In the case of `Cc1ncc(F)c(Nc2n[nH]c3c2CN(C(=O)N2C[C@@H](C)N(CC4CCOCC4)C[C@@H]2C)C3(C)C)n1` [Example H6, 5-{[(2S,5R)-2,5-dimethyl-4-(tetrahydro-2H-pyran-4-ylmethyl)piperazin-1-yl]carbonyl}-N-(5-fluoro-2-methylpyrimidin-4-yl)-6,6-dimethyl-1,4,5,6-tetrahydropyrrolo[3,4-c]pyrazol-3-amine], the pKi is 7.83.

For the compound `CC[C@@H]1CN(C(=O)N2Cc3c(Nc4nc(C)ncc4F)n[nH]c3C2(C)C)CCN1C` [Example H5, 5-{[(3R)-3-ethyl-4-methylpiperazin-1-yl]carbonyl}-N-(5-fluoro-2-methylpyrimidin-4-yl)-6,6-dimethyl-1,4,5,6-tetrahydropyrrolo[3,4-c]pyrazol-3-amine], the pKi was 7.29.

On to `Cc1cccc(Nc2n[nH]c3c2CN(C(=O)N2C[C@@H](C)N(C)C[C@@H]2C)C3(C)C)n1` [Example J8, 6,6-dimethyl-N-(6-methylpyridin-2-yl)-5-{[(2S,5R)-2,4,5-trimethylpiperazin-1-yl]carbonyl}-1,4,5,6-tetrahydropyrrolo[3,4-c]pyrazol-3-amine], for which the negative logarithm of the Ki (pKi) is 7.49.

In the case of `Cc1ncc(F)c(Nc2n[nH]c3c2CN(C(=O)N2C[C@@H](C)N(C4CCOCC4)C[C@@H]2C)C3(C)C)n1` [Example H7, 5-{[(2S,5R)-2,5-dimethyl-4-(tetrahydro-2H-pyran-4-yl)piperazin-1-yl]carbonyl}-N-(5-fluoro-2-methylpyrimidin-4-yl)-6,6-dimethyl-1,4,5,6-tetrahydropyrrolo[3,4-c]pyrazol-3-amine], the pKi is 7.66.

Take `CCNc1ncc(F)c(Nc2n[nH]c3c2CN(C(=O)N2C[C@@H](C)N(CCC(F)(F)F)C[C@@H]2C)C3(C)C)n1` [Example B5, N4-(5-{[(2S,5R)-2,5-dimethyl-4-(3,3,3-trifluoropropyl)piperazin-1-yl]carbonyl}-6,6-dimethyl-1,4,5,6-tetrahydropyrrolo[3,4-c]pyrazol-3-yl)-N2-ethyl-5-fluoropyrimidine-2,4-diamine]: the pKi is 7.53.

Turning to `Cc1ncc(F)c(Nc2n[nH]c3c2CN(C(=O)C2(F)CCN(C)CC2)C3(C)C)n1` [Example F1, 5-[(4-fluoro-1-methylpiperidin-4-yl)carbonyl]-N-(5-fluoro-2-methylpyrimidin-4-yl)-6,6-dimethyl-1,4,5,6-tetrahydropyrrolo[3,4-c]pyrazol-3-amine], the pKi was 7.40.

Turning to `CC(C)c1ncc(F)c(Nc2n[nH]c3c2CN(C(=O)N2CC(C)(C)N(C)C[C@@H]2C)C3(C)C)n1` [Example I2, N-(5-fluoro-2-isopropylpyrimidin-4-yl)-6,6-dimethyl-5-{[(2S)-2,4,5,5-tetramethylpiperazin-1-yl]carbonyl}-1,4,5,6-tetrahydropyrrolo[3,4-c]pyrazol-3-amine], the pKi was 8.44.

In the case of `CCc1ncc(F)c(Nc2n[nH]c3c2CN(C(=O)N2CC(CCO)N(C)C[C@@H]2C)C3(C)C)n1` (stereo partly drawn) [Example E5, 2-((5S)-4-{[3-[(2-ethyl-5-fluoropyrimidin-4-yl)amino]-6,6-dimethyl-4,6-dihydropyrrolo[3,4-c]pyrazol-5(1H)-yl]carbonyl}-1,5-dimethylpiperazin-2-yl)ethanol], the pKi was greater than 8.00.

Consider `CC(C)Nc1ncc(F)c(Nc2n[nH]c3c2CN(C(=O)N2CC(C)(C)N(C)C[C@@H]2C)C3(C)C)n1` [Example A7, N^4-(6,6-dimethyl-5-{[(2S)-2,4,5,5-tetramethylpiperazin-1-yl]carbonyl}-1,4,5,6-tetrahydropyrrolo[3,4-c]pyrazol-3-yl)-5-fluoro-N^2-isopropylpyrimidine-2,4-diamine], for which the pKi was 8.42.

On to `CCc1ncc(F)c(Nc2n[nH]c3c2CN(C(=O)N2C[C@@H](C)N(CCC(F)(F)F)C[C@@H]2C)C3(C)C)n1` [Example E4, 5-{[(2S,5R)-2,5-dimethyl-4-(3,3,3-trifluoropropyl)piperazin-1-yl]carbonyl}-N-(2-ethyl-5-fluoropyrimidin-4-yl)-6,6-dimethyl-1,4,5,6-tetrahydropyrrolo[3,4-c]pyrazol-3-amine], for which the pKi was 7.50.

Take `CCN1C[C@H](C)N(C(=O)N2Cc3c(Nc4nc(C)nc(C)c4F)n[nH]c3C2(C)C)C[C@H]1C` [AA3, 5-{[(2S,5R)-4-ethyl-2,5-dimethylpiperazin-1-yl]carbonyl}-N-(5-fluoro-2,6-dimethylpyrimidin-4-yl)-6,6-dimethyl-1,4,5,6-tetrahydropyrrolo[3,4-c]pyrazol-3-amine]: the pKi is 7.83.

For the compound `COCCOc1ncc(F)c(Nc2n[nH]c3c2CN(C(=O)N2CC(C)(C)N(C)C[C@@H]2C)C3(C)C)n1` [Example K11, N-[5-fluoro-2-(2-methoxyethoxy)pyrimidin-4-yl]-6,6-dimethyl-5-{[(2S)-2,4,5,5-tetramethylpiperazin-1-yl]carbonyl}-1,4,5,6-tetrahydropyrrolo[3,4-c]pyrazol-3-amine], the pKi is 7.37.

On to `CCCc1ncc(F)c(Nc2n[nH]c3c2CN(C(=O)N2CC(C)(C)N(C)C[C@@H]2C)C3(C)C)n1` [Example I1, N-(5-fluoro-2-propylpyrimidin-4-yl)-6,6-dimethyl-5-{[(2S)-2,4,5,5-tetramethylpiperazin-1-yl]carbonyl}-1,4,5,6-tetrahydropyrrolo[3,4-c]pyrazol-3-amine], for which the pKi was 8.76.

On to `CCN1C[C@H](C)N(C(=O)N2Cc3c(Nc4nc(C)ncc4F)n[nH]c3C2(C)C)C[C@H]1C` [AA2, 5-{[(2S,5R)-4-ethyl-2,5-dimethylpiperazin-1-yl]carbonyl}-N-(5-fluoro-2-methylpyrimidin-4-yl)-6,6-dimethyl-1,4,5,6-tetrahydropyrrolo[3,4-c]pyrazol-3-amine], for which the pKi is 7.72.

`CN1CCC(F)(C(=O)N2Cc3c(Nc4nc(OCC(F)(F)F)ncc4F)n[nH]c3C2(C)C)CC1` [Example L4, 5-[(4-fluoro-1-methylpiperidin-4-yl)carbonyl]-N-[5-fluoro-2-(2,2,2-trifluoroethoxy)pyrimidin-4-yl]-6,6-dimethyl-1,4,5,6-tetrahydropyrrolo[3,4-c]pyrazol-3-amine]: the negative-log Ki (pKi) was 8.77.

Consider `Cc1cccc(Nc2n[nH]c3c2CN(C(=O)N2C[C@]4(C)CCCN4C[C@@H]2C)C3(C)C)n1` [Example J7, 5-{[(3S,8aS)-3,8a-dimethylhexahydropyrrolo[1,2-a]pyrazin-2(1H)-yl]carbonyl}-6,6-dimethyl-N-(6-methylpyridin-2-yl)-1,4,5,6-tetrahydropyrrolo[3,4-c]pyrazol-3-amine], for which the pKi is 6.95.
